Data: US8669232B2, “Flavonol compounds, a bioactive extract/fraction from Ulmus wallichiana and its compounds for prevention for treatment of osteo-health related disorders” (Council of Scientific & Industrial Research, priority 2008, dated 2014)

System: BMCs (Bone Marrow Cells) from growing female rats
Test: Ex-vivo bone marrow cultures from treated immature rats (ALP, mineralization)
Format: in vivo, Sprague Dawley rats
Conditions: BMCs from growing rats treated with 5.0 mg/kg body weight for 30 days; vs controls
Text: Right femur of control and C002 treated rats were collected aseptically in PBS during autopsy from the rats. Soft tissue was removed, and the ends of the femur was clipped off using sterile scissors, a hole was created in the knee joint end of each bone with a needle, and the marrow was flushed out from the shaft with control medium (CM) which consisted of α-MEM supplemented with 10% fetal calf serum, 100 U/ml penicillin, 100 U/ml streptomycin (Sigma, Chemical Co., St. Louis, Mo., USA). The cells were suspended in this medium, and the suspensions were spun down at 800 rpm for 5 min. Cells were resuspended in fresh CM and counted using a haemocytometer. […] ALP activity was determined as described by Akiyama et al. with modifications. Briefly, cells were washed once with PBS, then, ALP activity was measured by adding ALP buffer (1 M diethanolamine, 0.5 mM MgCl2, 1 mg/ml PNPP, pH 9.0), incubating in 37° C., and absorbance (405 nm) was read using a microplate spectrophotometer. Statistical significance was determined by paired two-tailed Student's t-tests. […]
Right femur of control and K058 treated rats were collected aseptically in PBS during autopsy from the rats. […] Cells were resuspended in fresh CM and counted using a haemocytometer. […] ALP activity was determined as described by Akiyama et al. with modifications. […] Statistical significance was determined by paired two-tailed Student's t-tests.

For O=C1c2c(cc(O)c([C@@H]3OC(CO)[C@@H](O)[C@H](O)C3O)c2O)O[C@@H](c2ccc(O)c(O)c2)[C@@H]1O (stereo partly drawn) [K058, (2S,3S)-(+)-3′,4′,5,7-tetrahydroxydihydroflavonol-6-C-β-D-glucopyranoside], the “ALP activity of BMCs (osteoblast differentiation)” value was “significantly more” and the “mineralization of BMCs (alizarin red-S)” value was “significantly more”.
